What was measured:
[1] = tested on: A549 cells; test: Apoptotic activity by MTT analysis, A549 cells; assay type: cell-based; conditions: Homo sapiens, A549, 12 h, 15 μM of the compound, mean±standard deviation, read-out: Apoptosis (%) A549 cells
Description: (§1) Lung cancer cells (A549), colorectal cancer cells (HCT116), HeLa cells, liver cancer cells (HepG2), T-cell leukemia cells (Jurkat), myeloid leukemia cells (K562), breast cancer cells (MCF-7 and MDA-MB-231) and myelocytic leukemia cells ([…]) were obtained from the American Type Culture Collection (ATCC), and cultured in 10% fetal bovine serum (FBS), 50 units/mL penicillin and 50 units/mL streptomycin-added RPMI 1640 (Invitrogen). The cells were maintained in a humidified 37° C., 5% CO2 atmosphere. The anticancer activity was detected by MTT analysis. Each type of cancer cells were plated in triplicate in a 96-well microtiter plate, and cultured at 37° C. for 24 hours. The cells were treated with each of the compounds prepared above at 37° C. for 12 hours. After the culturing of the cells, 10 μL of an MTT reagent ((3-[4,5-dimethyl-2-thiazolyl]-2,5-diphenyl-2H-tetrazoliumbromide) was added to each well, and cultured for 3.5 hours. The absorbance of each sample was detected using a UV microplate reader (SpectraMax 340PC 384, Molecular Devices) at 570 nm. The detection results were measured as a mean value. The effect of each compound on apoptosis is shown in Table 1.
(§2) The A549 and HeLa cells were treated with 15 μM of the compound for 12 hours. The apoptosis was detected using MTT (mean±standard deviation).

[2] = tested on: HeLa cells; test: Apoptotic activity by MTT analysis, HeLa cells; assay type: cell-based; conditions: Homo sapiens, HeLa, 12 h, 15 μM of the compound, mean±standard deviation, read-out: Apoptosis (%) HeLa cells
Description: as §1, §2

## CN(C)c1ccc(-c2nc(-c3cccc(C(F)(F)F)c3)n(Cc3ccc(C(=O)NCCOCCOCCN)cc3)c2-c2ccc(N(C)C)cc2)cc1 [Example 27, N-(2-(2-(2-aminoethoxy)ethoxy)ethyl)-4-((4,5-bis(4-(dimethylamino)phenyl)-2-(3-(trifluoromethyl)phenyl)-1H-imidazole-1-yl)methyl)benzamide]
[1]
  cytotoxicity at 15 µM: 76 ± 0.98%
[2]
  cytotoxicity at 15 µM: 86 ± 0.38%
